{"source": "patent EP4458352A1", "about": "“EICOSAPENTAENOIC ACID ESTER DERIVATIVES FOR THE TREATMENT OF OBESITY” (Technische Universität Dresden, priority 2023, dated 2024)", "key": {"[1]": {"tested_on": "primary adrenocortical cells", "test": "Flow cytometry with Mitotracker Green and TMRE in primary adrenocortical cells treated with SC-26196", "format": "cell-based, WT C57BL/6J mice", "details": "SC-26196 10 µM, 18 h vs DMSO; n=6", "description": "Adrenocortical cells (CD31-CD45-) were treated for 18 h with DMSO or SC-26196 (10 µM) and were then incubated with Mitotracker Green (0.25 µM; Invitrogen), TMRE (2.5 µM; Thermofisher), for 30 min at 37°C in FACS buffer (0.5 % BSA, 2 mM EDTA in PBS) in dark. Live cells were selected by DAPI staining. FACS was performed using LSR Fortessa X20 flow cytometer and data were analyzed with the FlowJo software."}, "[2]": {"tested_on": "primary adrenocortical cells", "test": "Seahorse OCR measurement in primary adrenocortical cells treated with SC-26196", "format": "cell-based, WT C57BL/6J mice", "details": "SC-26196 10 µM, 18 h vs DMSO; n=4", "description": "Primary adrenocortical cells were plated in 0.2 % gelatin-precoated XF96 cell culture microplate (Agilent) (8*10^4 cells/well) and treated for 18 h with DMSO or SC-26196 (10 µM). OCR was measured with a Seahorse XF96 Analyzer (Agilent Technologies). The experimental medium used was XF Base Medium supplemented with glucose (10 mM), pyruvate (1 mM) and glutamine (2 mM)."}, "[3]": {"tested_on": "primary adrenocortical cultures", "test": "Medulla explant-conditioned medium on primary adrenocortical cell cultures, steroids by LC-MS/MS", "format": "cell-based, WT C57BL/6J mice", "description": "Medullas were isolated from WT C57BL/6J mice and transferred into DMEM/F12 medium. Six hours later the medulla explant supernatants were collected and applied onto adrenocortical cell cultures. These were previously treated for 6 h with SC-26196 (10 µM) or DMSO. SC-26196 or DMSO were re-added and adrenocortical cells were incubated for another 18 h until supernatants were collected for steroid measurement. In other experiments, medulla explants were treated for 6 h with SC-26196 (10 µM) or DMSO, washed thoroughly and left another 18 h in culture. Their supernatant was then applied on adrenocortical cell cultures and 8 h later supernatants of the latter were collected and analyzed by LC-MS/MS.\nSteroid hormones in plasma and cell culture supernatants were analyzed by LC-MS/MS as previously described (71). Fifty to hundred µL plasma or cell culture supernatants were extracted by solid phase extraction using positive pressure, followed by a dry-down under gentle stream of nitrogen. […] Quantification of steroid concentrations was done by comparisons of ratios of analyte peak areas to respective peak areas of stable isotope labeled internal standards obtained in samples to those of calibrators."}, "[4]": {"tested_on": "adrenal glands of mice fed a HFD", "test": "FFA measurement (HPLC-MS) in adrenal glands of HFD mice with or without SC-26196", "format": "in vivo, WT C57BL/6J mice", "details": "HFD with vs without SC-26196; n=8-10 mice per group", "description": "Six weeks-old male WT C57BL/6J mice were fed for 20 weeks a LFD (D12450B, Research Diets, NJ, USA) or a HFD (D12492, Research Diets, NJ, USA). In some experiments, WT C57BL/6J mice were fed for 8 weeks a HFD and for another 8 weeks a HFD supplemented with SC-26196 (Biorbyt Ltd). SC-26196 was mixed in the HFD at a concentration of 625 mg/kg of diet corresponding to approx. 100 mg/kg of animal weight. In other experiments WT mice were fed for 10 weeks a HFD and for another 10 weeks a HFD supplemented with icosapent ethyl (Vascepa). The content of Vascepa capsules was mixed by Research Diets with the diet at a concentration of 1.125 g/kg icosapent ethyl (corresponding to approx. 180 mg/kg of animal weight). Mice were weighed every week. Glucose and insulin tolerance tests were performed as previously described (20, 21). Three to five mg of hair (2-3 mm close to the skin on the back of the mice) were cut while gently holding the mice without anaesthesia.\nFrozen adrenal glands were homogenized in 200 µL PBS-buffer. Lipids were extracted from adrenal lysates or supernatants in chloroform/methanol (Folch's protocol). The extract was evaporated to dryness under stream of nitrogen at 40 °C. The residue was dissolved in 100 µL ethanol. For FFA 50 µL were used. […] The quantification was performed with individual calibration curves using deuterated standards (Cayman Chemical, Ann Arbor, MI)."}}, "data": [{"smiles": "N#CC(CCCN1CCN(/N=C/c2cccnc2)CC1)(c1ccccc1)c1ccccc1", "note": "[SC-26196]", "values": [{"measurement": "mitochondrial load (Mitogreen staining)", "setting": "[1]", "result": "decreased"}, {"measurement": "mitochondrial membrane potential (TMRE staining)", "setting": "[1]", "result": "decreased"}, {"measurement": "oxygen consumption rate (OCR)", "setting": "[2]", "result": "decreased"}, {"measurement": "steroid synthesis in cells receiving medulla-conditioned medium", "setting": "[3]; adrenocortical cells treated 6 h with SC-26196 10 µM, then conditioned medium for another 18 h, n=4-6", "result": "diminished steroid synthesis"}, {"measurement": "increase of progesterone, 11-dehydrocorticosterone and corticosterone production by medulla-conditioned supernatants", "setting": "[3]; medulla explants treated 6 h with SC-26196 10 µM, washed, 18 h culture, supernatant on adrenocortical cells 8 h, n=8", "result": "attenuated"}, {"measurement": "free PUFA, including ARA, levels in the adrenal glands", "setting": "[4]", "result": "reduced"}]}]}
